Laboratory results: PubChem BioAssay (NCI)
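Cells were grown in 96-well plates and exposed to each compound for 48 hours at five concentrations; endpoints were interpolated linearly between bracketing concentrations, or set to the highest concentration if not reached. GI50: concentration for 50% inhibition of growth. Definition used: TGI = concentration required for complete inhibition of growth.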

Legend:
Experiment in all cases: DTP human tumour cell line panel, 48 h
[1] = system: SK-MEL-28 melanoma
[2] = system: T-47D breast
[3] = system: MALME-3M melanoma
[4] = system: MDA-MB-231 breast
[5] = system: LOX IMVI melanoma
[6] = system: NCI-H460 lung
[7] = system: HOP-62 NSCLC
[8] = system: DU-145 prostate
[9] = system: UO-31 renal
[10] = system: NCI-H23 lung

Structure (SMILES)	GI50 [1]	TGI [1]	GI50 [2]	TGI [2]	GI50 [3]	TGI [3]	GI50 [4]	TGI [4]	GI50 [5]	TGI [5]	GI50 [6]	TGI [6]	GI50 [7]	TGI [7]	GI50 [8]	TGI [8]	GI50 [9]	TGI [9]	GI50 [10]	TGI [10]
Cn1c(=O)c(-c2ccccc2Cl)cc2cnc(NC3CCOCC3)nc21	10.7 µM	> 25 µM	18.1 µM	> 25 µM	7.08 µM	> 22.3 µM	7.69 µM	> 25 µM	5.49 µM	> 25 µM	11.1 µM	> 25 µM	> 25 µM	> 25 µM	12.3 µM	> 25 µM	6.8 µM	> 22.4 µM	18.3 µM	> 25 µM
CCN(CC)c1ccc(/C=N/NC(=O)Cc2ccc(Nc3ccnc(C(F)(F)F)c3)cc2)c(O)c1	1.1 µM	> 78 µM	0.517 µM	> 25.1 µM	1.18 µM	> 26 µM	0.842 µM	> 100 µM	0.413 µM	3.8 µM	0.351 µM	> 39.7 µM	0.566 µM	> 100 µM	0.828 µM	> 100 µM	0.482 µM	> 100 µM	1.34 µM	> 100 µM
Cc1cc(N2CCC(N3CCCC3)CC2)nc(/N=C(\N)Nc2ccc(Cl)c(Cl)c2)n1	1.91 µM	3.41 µM	1.92 µM	3.59 µM	2 µM	3.82 µM	1.67 µM	3.64 µM	1.61 µM	3.35 µM	1.89 µM	3.67 µM	1.81 µM	3.8 µM	1.75 µM	3.44 µM	1.44 µM	2.85 µM	2.12 µM	6.61 µM
O=c1c(I)c[nH]cc1I	> 100 µM	> 100 µM	> 100 µM	> 100 µM	> 100 µM	> 100 µM	> 100 µM	> 100 µM	> 100 µM	> 100 µM	> 100 µM	> 100 µM	> 100 µM	> 100 µM	> 100 µM	> 100 µM	> 100 µM	> 100 µM	> 100 µM	> 100 µM
Nc1ccc(CC[C@H]2CCC/C=C/[C@@H]3C[C@H](O)C[C@H]3[C@H](O)/C=C/C(=O)O2)cc1	0.0244 µM	1.43 µM	0.0751 µM	> 100 µM	0.0731 µM	0.543 µM	0.0212 µM	0.0421 µM	0.0231 µM	0.0567 µM	0.043 µM	> 100 µM	0.0463 µM		0.107 µM	> 100 µM	0.0276 µM	2.34 µM	0.0379 µM	1.06 µM
C=C1C(=O)OC2CC(C)C(/C=C/C(C)=O)=CCC12 (stereo not given)		> 100 µM		> 100 µM		89.4 µM		> 100 µM		> 100 µM		> 100 µM		> 100 µM		> 100 µM				> 100 µM
Fc1ccccc1CN1COc2c(cc(Cl)c3cccnc23)C1		18.7 µM		18.4 µM		12.2 µM		4.3 µM				> 100 µM		16.6 µM		16.4 µM		17.7 µM		9.31 µM
Nc1nc(SCc2ccccc2CCl)c2[nH]cnc2n1	17.7 µM	49.7 µM	15.6 µM	52.3 µM	12.5 µM	28.8 µM	14.2 µM	38 µM	12.7 µM	26.9 µM	15.2 µM	30.9 µM	17 µM	33.2 µM	16.3 µM	41.7 µM	10.5 µM	71.9 µM	15.7 µM	36.5 µM
[Br][Pb]([c]1ccccc1)([c]1ccccc1)[c]1ccccc1	0.175 µM	0.342 µM	0.143 µM	0.318 µM	0.183 µM	0.39 µM	0.208 µM	0.514 µM	0.132 µM	0.299 µM	0.292 µM	0.895 µM	0.218 µM	0.505 µM	0.182 µM	0.37 µM	0.141 µM	0.279 µM	0.174 µM	0.418 µM
CCCCCCCCCCCCCCCCCc1nc(Cl)nc(Cl)c1Cl		> 100 µM		> 100 µM		> 100 µM		> 100 µM		> 100 µM		> 100 µM		> 100 µM		> 100 µM		> 100 µM		> 100 µM
O=[N+]([O-])c1ccccc1N=Nc1c(O)[nH]c2c(Cl)cccc12		> 72.4 µM		> 75 µM		> 35.2 µM		23.4 µM		44.1 µM		38.4 µM		40.9 µM		> 79.2 µM		> 67.2 µM		> 71.3 µM
CC1(C)N=C(N)N=C(N)N1c1ccc(CCCC(=O)Nc2ccc(S(=O)(=O)F)cc2)cc1	16 µM	> 100 µM	15.8 µM	98.2 µM	24.2 µM	> 100 µM	45.7 µM	> 100 µM	6.03 µM	> 100 µM	0.816 µM	> 100 µM	40.9 µM	> 100 µM	6.98 µM	> 100 µM	> 100 µM	> 100 µM	8.59 µM	> 100 µM
COC(=O)c1c(C)nc(C)c2c1C(=O)C(Br)=C(NCc1ccccc1)C2=O	5.79 µM	17.5 µM	2.26 µM	5 µM	1.47 µM	2.85 µM	2.11 µM	8.4 µM	2.45 µM	10.8 µM	2.94 µM	11.5 µM	3.12 µM	10.8 µM	4.26 µM	13 µM	2.41 µM	10.7 µM	1.89 µM	5.19 µM
COc1ccc(OC)c2c(C(C)=O)cccc12		> 100 µM		> 100 µM		> 100 µM		> 100 µM				> 100 µM		> 100 µM		> 100 µM		> 100 µM		> 100 µM
CC(C)(Oc1ccc(-c2cccc3ccccc23)cc1)C(=O)O		> 100 µM		> 100 µM		> 100 µM		> 100 µM				> 100 µM		> 100 µM		> 100 µM		> 100 µM		> 100 µM
